Results taken from US12312370B2, “Immunoproteasome inhibitors” (Principia Biopharma Inc., priority 2017, dated 2025).

What was measured:
[1] = biological target: immunoproteasome LMP7/B5i subunit (Homo sapiens, UniProt P28062); assay: Caliper-based proteasome enzymatic activity assay, LMP7; format: biochemical; conditions: human recombinant immunoproteasome 0.3 nM, FAM-labeled peptide substrate 1 μM, rt 3 h; read-out: LMP7 subunit IC50
[2] = biological target: constitutive proteasome β5c unit (Homo sapiens, UniProt P28074); assay: Caliper-based proteasome enzymatic activity assay, β5c; format: biochemical; conditions: human recombinant constitutive proteasome 0.3 nM, FAM-labeled peptide substrate 1 μM, rt 3 h; read-out: β5c subunit IC50

SMILES | IC50 [1] [nM] | IC50 [2] [nM]
C=CC(=O)N1C2CCC1(COC(=O)N[C@@H](Cc1coc3ccccc13)B(O)O)CC2 [Example 63, (R)-(1-((((7-acryloyl-7-azabicyclo[2.2.1]heptan-1-yl)methoxy)carbonyl)amino)-2-(benzofuran-3-yl)ethyl)boronic acid] | 2 | 465
CC(C)C=C(C#N)C(=O)N1CCC[C@@H]1COC[C@H](NC(=O)c1cc(Cl)ccc1Cl)C(=O)N[C@@H](Cc1ccccc1)[B-]12OC(=O)C[N+]1(C)CC(=O)O2 (stereo partly drawn) [Example 19, 8-((R)-1-((S)-3-(((R)-1-(2-cyano-4-methylpent-2-enoyl)pyrrolidin-2-yl)methoxy)-2-(2,5-dichlorobenzamido)propanamido)-2-phenylethyl)-4-methyl-2,6-dioxohexahydro-[1,3,2]oxazaborolo[2,3-b][1,3,2]oxazaborol-4-ium-8-uide] | 9.6 | 15.6
CC(C)(C=C(C#N)C(=O)N1C2CCC1(COC(=O)N[C@@H](Cc1ccc(F)cc1)B(O)O)CC2)N1CCC(F)(F)C1 [Example 84, (R)-(1-((((7-(2-cyano-4-(3,3-difluoropyrrolidin-1-yl)-4-methylpent-2-enoyl)-7-azabicyclo[2.2.1]heptan-1-yl)methoxy)carbonyl)amino)-2-(4-fluorophenyl)ethyl)boronic acid] | 0.7 | 279
CC(C)C=C(C#N)C(=O)N1CCC[C@@H]1COC[C@H](NCC(F)(F)F)C(=O)N[C@@H](Cc1ccccc1)B(O)O [Example 23, (R)-1-((S)-3-(((R)-1-(2-cyano-4-methylpent-2-enoyl)pyrrolidin-2-yl)methoxy)-2-(2,2,2-trifluoroethylamino)propanamido)-2-phenylethylboronic acid] | 35 | 450
CC(C)(C=C(C#N)C(=O)N1C2CCC1(COC(=O)N[C@@H](Cc1ccc(F)cc1)B(O)O)CC2)N1CCOCC1 [Example 82, (R)-(1-((((7-(2-cyano-4-methyl-4-morpholinopent-2-enoyl)-7-azabicyclo[2.2.1]heptan-1-yl)methoxy)carbonyl)amino)-2-(4-fluorophenyl)ethyl)boronic acid] | 1.7 | 1380
CC(C)(C=C(C#N)C(=O)N1CC[C@@H]1COC(=O)N[C@@H](Cc1ccccc1)B(O)O)N1CCC(F)(F)C1 [Example 54, ((R)-1-(((((R)-1-(2-cyano-4-(3,3-difluoropyrrolidin-1-yl)-4-methylpent-2-enoyl)azetidin-2-yl)methoxy)carbonyl)amino)-2-phenylethyl)boronic acid] | 2.7 | 504
CC(C)(C=C(C#N)C(=O)N1CCC[C@@H]1CNC(=O)N[C@@H](Cc1coc2ccccc12)B(O)O)N1CCC(F)(F)CC1 [Example 49, ((R)-2-(benzofuran-3-yl)-1-(3-(((R)-1-(2-cyano-4-(4,4-difluoropiperidin-1-yl)-4-methylpent-2-enoyl)pyrrolidin-2-yl)methyl)ureido)ethyl)boronic acid] | 5.3 | 1810
CC#CC(=O)N(C)c1cccc(C[C@H](NC(=O)c2cc(Cl)ccc2Cl)C(=O)N[C@@H](Cc2ccccc2)B(O)O)c1 [Example 18, ((R)-1-((S)-2-(2,5-dichlorobenzamido)-3-(3-(N-methylbut-2-ynamido)phenyl)propanamido)-2-phenylethyl)boronic acid] | 7.3 | 10
CC(C)(C=C(C#N)C(=O)N1CCC[C@H](OC(=O)N[C@@H](Cc2ccccc2)B(O)O)C1)N1CCC(F)(F)C1 [Example 60, ((R)-1-(((((S)-1-(2-cyano-4-(3,3-difluoropyrrolidin-1-yl)-4-methylpent-2-enoyl)piperidin-3-yl)oxy)carbonyl)amino)-2-phenylethyl)boronic acid] | 1.4 | 463
CC(C)C=C(C#N)C(=O)N1CCC[C@@H]1COC[C@H](NCC(F)(F)F)C(=O)N[C@@H](Cc1coc2ccccc12)B(O)O [Example 31, ((R)-2-(benzofuran-3-yl)-1-((S)-3-(((R)-1-(2-cyano-4-methylpent-2-enoyl)pyrrolidin-2-yl)methoxy)-2-((2,2,2-trifluoroethyl)amino)propanamido)ethyl)boronic acid] | 11.6 | 39.4
CC1(C)CCN(C(C)(C)C=C(C#N)C(=O)N2CCC[C@H](OC(=O)N[C@@H](Cc3coc4ccccc34)B(O)O)C2)C1 [Example 68, ((R)-2-(benzofuran-3-yl)-1-(((((S)-1-(2-cyano-4-(3,3-dimethylpyrrolidin-1-yl)-4-methylpent-2-enoyl)piperidin-3-yl)oxy)carbonyl)amino)ethyl)boronic acid] | 31.8 | 1240
C=CC(=O)N1CCCC(C)(OC(=O)N[C@@H](Cc2ccccc2)B(O)O)C1 (single isomer, unassigned) [Example 85] | > 5000 | > 5000
CC(C)C=C(C#N)C(=O)N(C)c1cccc(C[C@H](NCC(F)(F)F)C(=O)N[C@@H](Cc2ccccc2)B(O)O)c1 [Example 26, ((R)-1-((S)-3-(3-(2-cyano-N,4-dimethylpent-2-enamido)phenyl)-2-((2,2,2-trifluoroethyl)amino)propanamido)-2-phenylethyl)boronic acid] | 11 | 362

The next lines start with the values.

IC50 [1] [nM] | IC50 [2] [nM] | SMILES
1.3 | 753 | CC(C)(C=C(C#N)C(=O)N1C2CCC1(COC(=O)N[C@@H](Cc1ccccc1)B(O)O)CC2)N1CCOC2(CC2)C1 [Example 116, (R)-(1-((((7-(2-cyano-4-methyl-4-(4-oxa-7-azaspiro[2.5]octan-7-yl)pent-2-enoyl)-7-azabicyclo[2.2.1]heptan-1-yl)methoxy)carbonyl)amino)-2-phenylethyl)boronic acid]
18.2 | 3320 | C=CC(=O)N1C[C@@H](F)[C@H](OC(=O)N[C@@H](Cc2ccc(F)cc2)B(O)O)C1 [Example 135, ((R)-1-(((((3R,4R)-1-acryloyl-4-fluoropyrrolidin-3-yl)oxy)carbonyl)amino)-2-(4-fluorophenyl)ethyl)boronic acid]
2.8 | 2040 | C[C@H]1CN(C(C)(C)C=C(C#N)C(=O)N2CCCC[C@@H](OC(=O)N[C@@H](Cc3ccccc3)B(O)O)C2)CCO1 [Example 130, ((R)-1-(((((R)-1-(2-cyano-4-methyl-4-((S)-2-methylmorpholino)pent-2-enoyl)azepan-3-yl)oxy)carbonyl)amino)-2-phenylethyl)boronic acid]
18.3 | 207 | C=CC(=O)N1C[C@H](F)[C@H](OC(=O)N[C@@H](Cc2ccccc2)B(O)O)C1 [Example 115, ((R)-1-(((((3R,4S)-1-acryloyl-4-fluoropyrrolidin-3-yl)oxy)carbonyl)amino)-2-phenylethyl)boronic acid]
1 | 685 | CC1(C)CN(C(C)(C)C=C(C#N)C(=O)N2C3CCC2(COC(=O)N[C@@H](Cc2ccccc2)B(O)O)CC3)CCO1 [Example 119, (R)-(1-((((7-(2-cyano-4-(2,2-dimethylmorpholino)-4-methylpent-2-enoyl)-7-azabicyclo[2.2.1]heptan-1-yl)methoxy)carbonyl)amino)-2-phenylethyl)boronic acid]
1 | 1070 | COC(=O)N1CCN(C(C)(C)C=C(C#N)C(=O)N2CCCC[C@@H](OC(=O)N[C@@H](Cc3ccccc3)B(O)O)C2)CC1 [Example 107, ((R)-1-(((((R)-1-(2-cyano-4-(4-(methoxycarbonyl)piperazin-1-yl)-4-methylpent-2-enoyl)azepan-3-yl)oxy)carbonyl)amino)-2-phenylethyl)boronic acid]
1.8 | 1140 | CC(C)(C=C(C#N)C(=O)N1CC[C@H](OC(=O)N[C@@H](Cc2ccccc2)B(O)O)C1)N1CCC(F)(F)C1 [Example 89, ((R)-1-(((((S)-1-(2-cyano-4-(3,3-difluoropyrrolidin-1-yl)-4-methylpent-2-enoyl)pyrrolidin-3-yl)oxy)carbonyl)amino)-2-phenylethyl)boronic acid]
646 | > 5000 | CC(C)(C=C(C#N)C(=O)N1CCC[C@@](C)(OC(=O)N[C@@H](Cc2ccccc2)B(O)O)C1)N1CCC(F)(F)C1 (single isomer, unassigned) [Example 93]
4.7 | 1350 | C[C@H]1CN(C(C)(C)C=C(C#N)C(=O)N2CCCC[C@@H](OC(=O)N[C@@H](Cc3ccccc3)B(O)O)C2)C[C@H](C)O1 [Example 128, ((R)-1-(((((R)-1-(2-cyano-4-((2S,6S)-2,6-dimethylmorpholino)-4-methylpent-2-enoyl)azepan-3-yl)oxy)carbonyl)amino)-2-phenylethyl)boronic acid]
59.1 | 218 | C=CC(=O)N1CC(COC(=O)N[C@@H](Cc2ccccc2)B(O)O)C1 [Example 86, (R)-(1-((((1-acryloylazetidin-3-yl)methoxy)carbonyl)amino)-2-phenylethyl)boronic acid]
1.2 | > 5000 | CC(C)(C=C(C#N)C(=O)N1CCCC[C@@H](OC(=O)N[C@@H](CC2=CCCC2)B(O)O)C1)N1CCOCC1 [Example 138, ((R)-1-(((((R)-1-(2-cyano-4-methyl-4-morpholinopent-2-enoyl)azepan-3-yl)oxy)carbonyl)amino)-2-(cyclopent-1-en-1-yl)ethyl)boronic acid]
19.3 | 3760 | CC(C)(C=C(C#N)C(=O)N1CC[C@H](COC(=O)N[C@@H](Cc2ccccc2)B(O)O)C1)N1CCOCC1 [Example 99, ((R)-1-(((((S)-1-(2-cyano-4-methyl-4-morpholinopent-2-enoyl)pyrrolidin-3-yl)methoxy)carbonyl)amino)-2-phenylethyl)boronic acid]
27.1 | 4700 | C=CC(=O)N1C[C@@H](F)[C@H](OC(=O)N[C@@H](Cc2ccccc2)B(O)O)C1 [Example 102, ((R)-1-(((((3R,4R)-1-acryloyl-4-fluoropyrrolidin-3-yl)oxy)carbonyl)amino)-2-phenylethyl)boronic acid]
1.6 | 1340 | CC(C)(C=C(C#N)C(=O)N1CCCC[C@@H](OC(=O)N[C@@H](Cc2ccccc2)B(O)O)C1)N1CCC(F)(F)C1 (single isomer, unassigned) [Example 105]
